Values quoted from earlier work as cited in patent publication US20070231316A1, “Treatment of Cognitive Dysfunction in Lupus” (priority 2003, published 2007).

Assays:
[1] = NP-SLE patients, after treatment
[2] = in vivo

Compound	GFAP level in CSF [1]	NFL level in CSF [1]	effect on blood-brain barrier [2]
O=P1(N(CCCl)CCCl)NCCCO1 (stereo not drawn) [cyclophosphamide]	marked decline	marked decline	
lipopolysaccharide [LPS]			temporary opening of the blood-brain barrier
